Values of other authors as cited in US8980888B2, “Pyrazole derivative” (Mochida Pharmaceutical Co., Ltd., priority 2013, dated 2015).

Legend:
[1] = test system: apomorphine-induced stereotypy; conditions: rats; according to U.S. Patent Application No. 2003/0032579; cited from earlier work
[2] = test system: dopamine level in the rat brain; conditions: according to U.S. Patent Application No. 2003/0032579; cited from earlier work
[3] = test system: haloperidol-induced catalepsy; conditions: rat; according to U.S. Patent Application No. 2003/0032579; cited from earlier work

COc1ccc(Cc2nccc3cc(OC)c(OC)cc23)cc1OC [papaverine]
apomorphine-induced stereotypy [1]: decreases | dopamine level in the rat brain [2]: decreases | haloperidol-induced catalepsy [3]: increases
